In US20250093263A1, “FRET-BASED ASSAYS” (The General Hospital Corporation, priority 2021, published 2025):
“And” between values parts separate entries of the source, which are not always exact repeats. Identical values can stand only once. Counter-ions that a name gives are not always drawn. Like-named read-outs stand apart in the source and are kept apart here. Marks after values point to notes of the source that are not given here.

How the values were obtained:
[1] = biological target: T1, PfcProRS (Plasmodium falciparum, UniProt Q8I5R7); test: biochemical; format: binding
T1 construct: made in house; host or cells: SoluBL-21 E. coli
Protocol: (§1) A stock solution containing CoraFluor-1-Halo-labeled HT-PfcProRS or CoraFluor-1-Halo-labeled HT-HsProRS at the concentration specified for each experiment was prepared in assay buffer (50 mM Tris, pH 7.5, 20 mM KCl, 10 mM MgCl2, 0.05% Tween-20, 1 mM dithiothreitol, and 0.5 mg/mL BSA). […] Plates were mixed on an Ika MTS 2/4 Digital Microtiter Shaker at 750 rpm for 2 min, centrifuged at 1,000×g at 25° C. for 1 min. and allowed to equilibrate at room temperature for 2 h before TR-FRET measurements were taken. […] PRISM 9 (GraphPad) was used to perform non-linear regression analysis (one site—specific binding), plot dose-response curves, and calculate KD values.
(§2) A Multidrop Combi Reagent Dispenser (ThermoFisher Scientific) was used to dispense 20 μL of 2× protein solution into each well. […] Plates were mixed on an Ika MTS 2/4 Digital Microtiter Shaker at 750 rpm for 2 min, centrifuged at 1,000×g at 25° C. for I min, and allowed to equilibrate for 2 h at room temperature before TR-FRET measurements were taken.
(§3) PRISM 9 (GraphPad) was used to perform non-linear regression analysis (log(inhibitor) vs. response—Variable slope (four parameters)), plot dose-response curves, and calculate iC50 values.
(§4) Test compounds were dispensed in duplicate, triplicate, or sextuplicate dose-response format using a D300 digital dispenser (Hewlett Packard). […] Plates were mixed on an Ika MTS 2/4 Digital Microtiter Shaker at 750 rpm for 2 min, centrifuged at 1,000×g at 25° C. for 1 min, and allowed to equilibrate for 2 h at room temperature.
(§5) GraphPad PRISM was used to perform non-linear regression (log(inhibitor) vs. response—Variable slope (four parameters)), plot dose-response curves, and calculate IC50 values.
(§6) This assay was generally conducted in the same manner as the CoraFluor-1-Halo format with minor differences. […] Each well was supplemented with 1 nM CoraFluor-1-Pfp-labeled anti-His6 antibody before the 2 h incubation.
(§7) TR-FRET measurements were acquired in kinetic mode (1 read every ˜45 s) for at least 10 min.

[2] = biological target: T2, Keap1 (His/GST) (Homo sapiens, UniProt Q14145); test: Keap1 TR-FRET Assay 3 (CDDO-FITC/Tb-Anti-6xHis); format: binding
[3] = biological target: T2, Keap1 (His/GST); test: biochemical
[4] = biological target: T3, WT Keap1 (tag-free, full-length) (Homo sapiens, UniProt Q14145); test: biochemical; conditions: read-out: Assay 1: % at 100
[5] = biological target: T3, WT Keap1 (tag-free, full-length); test: biochemical
[6] = test system: P. falciparum Dd2-2D4; test: P. falciparum asexual blood stage growth assay, wild type; conditions: for EC50: read-out: Dd2 (EC50 [nM]) wt; for percent growth at 10 μM: Dd2 wt, shown because compound had <50% growth inhibition
[7] = test system: halofuginone-induced P. falciparum (elevated proline homeostasis); test: P. falciparum asexual blood stage growth assay, halofuginone-induced parasites; conditions: for EC50: Plasmodium falciparum, DD2, 72 h, read-out: Dd2 (EC50 [nM]) Halofuginone-induced; for percent growth at 10 μM: halofuginone-induced, shown because compound had <50% growth inhibition
[8] = biological target: T4, HsProRS (Homo sapiens, UniProt P07814); test: TR-FRET ProRS ligand displacement / saturation binding assay, HsProRS; conditions: for fold less tightly bound to HT-HsProRS relative to HT-PfcProRS: tracer KD ratio
T4 construct: made in house; host or cells: SoluBL-21 E. coli
T4 sequence (P07814 996-1512): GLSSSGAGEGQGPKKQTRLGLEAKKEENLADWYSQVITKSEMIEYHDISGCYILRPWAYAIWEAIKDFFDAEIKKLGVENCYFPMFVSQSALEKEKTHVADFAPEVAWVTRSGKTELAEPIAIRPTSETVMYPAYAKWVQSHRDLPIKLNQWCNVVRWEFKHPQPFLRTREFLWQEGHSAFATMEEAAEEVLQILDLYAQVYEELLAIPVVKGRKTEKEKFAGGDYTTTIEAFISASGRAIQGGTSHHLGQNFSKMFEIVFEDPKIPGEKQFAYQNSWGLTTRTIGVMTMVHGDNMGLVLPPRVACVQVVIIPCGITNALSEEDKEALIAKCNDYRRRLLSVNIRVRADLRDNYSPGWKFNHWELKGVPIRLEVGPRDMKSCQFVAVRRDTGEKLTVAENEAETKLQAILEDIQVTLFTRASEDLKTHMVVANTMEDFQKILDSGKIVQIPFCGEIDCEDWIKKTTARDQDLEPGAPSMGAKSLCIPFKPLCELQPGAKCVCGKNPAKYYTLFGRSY
Protocol: as §1, §2, §3, §4, §5, §6, §7

[9] = biological target: T5, BRD4 in MCF7 cells (Homo sapiens, UniProt O60885); test: TR-FRET BRD4 quantification after degrader treatment, MCF7 cells; format: cell-based; conditions: for rescue of CS-JQ1-mediated BRD4 degradation: 250 nM CS-JQ1, 1 μM rescue compound or 10 μM JQ1; for rescue of dBET6-induced BRD4 degradation: 250 nM dBET6, 1 μM rescue compound or 10 μM JQ1, 5 h
T5 construct: TR-FRET-based quantification of BRD4 levels in unmodified cell lines after degrader treatment; endogenous in cells; host or cells: MCF7
Protocol: Cells were incubated for 5 h at 37° C. and 5% CO2 then media was replaced with pre-warmed cell culture medium (1 mL/well) and residual test compound was washed out for 1 h at 37° C. and 5% CO2. After, media was aspirated and cells were washed with PBS (2 mL/well), followed by the addition of ice-cold lysis buffer (200 μL/well). The plate was shaken at 200 rpm on an orbital shaker (IKA KS 260 basic) for 10 min, then lysate was transferred to 1.5 mL Eppendorf tubes and further incubated with slow, end-over-end mixing for 10 min at 4° C. […] TR-FRET ratios were background-subtracted from wells containing lysis buffer, 0.5 mg/mL BSA, and detection mix, then normalized to total protein concentration. The average TR-FRET intensity was normalized to DMSO for each biological replicate before being analyzed in Prism 9. […] Cell treatment, lysate preparation and TR-FRET analysis was performed as described above.

[10] = biological target: T6, BRD4 in MDA-MB-231 cells (Homo sapiens, UniProt O60885); test: TR-FRET BRD4 quantification after degrader treatment, MDA-MB-231 cells; format: cell-based; conditions: for rescue of CS-JQ1-mediated BRD4 degradation: 250 nM CS-JQ1, 1 μM rescue compound or 10 μM JQ1; for rescue of dBET6-induced BRD4 degradation: 250 nM dBET6, 1 μM rescue compound or 10 μM JQ1, 5 h
T6 construct: TR-FRET-based quantification of BRD4 levels in unmodified cell lines after degrader treatment; endogenous in cells; host or cells: MDA-MB-231
Protocol: Cells were incubated for 5 h at 37° C. and 5% CO2 then media was replaced with pre-warmed cell culture medium (1 mL/well) and residual test compound was washed out for 1 h at 37° C. and 5% CO2. After, media was aspirated and cells were washed with PBS (2 mL/well), followed by the addition of ice-cold lysis buffer (200 μL/well). The plate was shaken at 200 rpm on an orbital shaker (IKA KS 260 basic) for 10 min, then lysate was transferred to 1.5 mL Eppendorf tubes and further incubated with slow, end-over-end mixing for 10 min at 4° C. […] TR-FRET ratios were background-subtracted from wells containing lysis buffer, 0.5 mg/mL BSA, and detection mix, then normalized to total protein concentration. The average TR-FRET intensity was normalized to DMSO for each biological replicate before being analyzed in Prism 9.
Cells were incubated for 5 h at 37° C. and 5% CO2 then media was replaced with pre-warmed cell culture medium (150 μL/well) and residual test compound was washed out for 1 h at 37° C. and 5% CO2. After, media was aspirated and cells were washed with PBS (200 μL/well), followed by the addition of ice-cold lysis buffer (60 L/well). […] Optionally, after TR-FRET measurements, 5 μL/well of CellTiter-Glo 2.0 reagent (Promega G9241) was added to the wells of the 384-well plate and allowed to equilibrate for 10 minutes before luminescence intensity was recorded on a Tecan SPARK plate reader (luminescence module, no attenuation, 250 ms integration time, output Counts/s). TR-FRET ratios were background-subtracted from wells containing lysis buffer, 0.5 mg/mL BSA, and detection mix.

[11] = dose-titration of ATP and proline against tracer MAT379, read-out: PfcProRS KD of substrates
[12] = PfcProRS (KD [nM]) +proline, 100 μM proline
[13] = PfcProRS (KD [nM]) −, absence of substrates
[14] = Plasmodium falciparum, DD2, 72 h
[15] = absence of substrates, read-out: HsProRS (KD [nM]) −
[16] = read-out: HsProRS (KD [nM]) +proline, 100 μM proline
[17] = dose-titration of tracer on HT-HsProRS, read-out: HsProRS KD of tracers
[18] = PfcProRS KD, substrate condition not given
[19] = substrate condition not given, read-out: HsProRS KD

T1 sequence (Q8I5R7 249-746): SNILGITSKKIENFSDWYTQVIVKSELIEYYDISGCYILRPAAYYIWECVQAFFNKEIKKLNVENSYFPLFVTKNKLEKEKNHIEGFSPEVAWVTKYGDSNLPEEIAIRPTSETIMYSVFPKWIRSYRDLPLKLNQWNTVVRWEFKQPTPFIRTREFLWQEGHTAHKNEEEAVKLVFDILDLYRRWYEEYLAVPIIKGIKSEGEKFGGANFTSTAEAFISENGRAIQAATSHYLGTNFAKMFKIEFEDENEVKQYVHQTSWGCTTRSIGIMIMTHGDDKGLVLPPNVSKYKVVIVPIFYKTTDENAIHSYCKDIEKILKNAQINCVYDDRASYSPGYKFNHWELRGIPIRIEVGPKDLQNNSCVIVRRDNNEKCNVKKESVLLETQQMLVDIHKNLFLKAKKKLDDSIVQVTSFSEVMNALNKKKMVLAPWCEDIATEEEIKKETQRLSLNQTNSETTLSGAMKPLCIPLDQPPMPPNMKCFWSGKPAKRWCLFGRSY
T2 sequence (Q14145 whole entry): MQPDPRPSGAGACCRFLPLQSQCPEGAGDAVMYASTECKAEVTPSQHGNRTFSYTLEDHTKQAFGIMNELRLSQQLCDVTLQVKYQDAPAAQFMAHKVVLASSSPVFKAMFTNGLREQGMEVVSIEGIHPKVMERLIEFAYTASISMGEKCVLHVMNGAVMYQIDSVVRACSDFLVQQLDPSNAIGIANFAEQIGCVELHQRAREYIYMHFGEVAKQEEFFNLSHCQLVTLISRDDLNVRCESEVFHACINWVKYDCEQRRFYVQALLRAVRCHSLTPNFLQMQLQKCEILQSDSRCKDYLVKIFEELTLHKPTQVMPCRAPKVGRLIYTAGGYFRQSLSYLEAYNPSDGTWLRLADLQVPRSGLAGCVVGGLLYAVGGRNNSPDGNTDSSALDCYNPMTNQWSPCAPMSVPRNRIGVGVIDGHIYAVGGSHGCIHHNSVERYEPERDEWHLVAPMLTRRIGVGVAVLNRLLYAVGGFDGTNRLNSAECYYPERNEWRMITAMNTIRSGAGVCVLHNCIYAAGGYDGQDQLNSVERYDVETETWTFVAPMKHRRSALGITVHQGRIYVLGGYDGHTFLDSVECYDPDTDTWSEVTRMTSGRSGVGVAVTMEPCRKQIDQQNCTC
T3 sequence (Q14145 whole entry): as above

Nc1ncnc2c1ncn2[C@@H]1O[C@H](COP(=O)(O)OP(=O)(O)OP(=O)(O)O)[C@@H](O)[C@H]1O [ATP]
Kd [1, 11]: 892000 nM

CC1(C)CC[C@]2(C(=O)O)CC[C@]3(C)[C@H](C(=O)C=C4[C@@]5(C)C=C(C#N)C(=O)C(C)(C)[C@@H]5CC[C@]43C)[C@@H]2C1 [CDDO, (4aS,6aR,6bS,8aR,12aS,14aR,14bS)-11-cyano-2,2,6a,6b,9,9,12a-heptamethyl-10,14.dioxo-1,3,4,5,6,6a,6b,7,8,8a,9,10,12a,14,14a,14b-hexadecahydropicene-4a(2H)-carboxylic acid]
IC50 [2]: 4 nM
IC50 [3]: 224000 nM

COC(=O)[C@]12CCC(C)(C)C[C@H]1[C@H]1C(=O)C=C3[C@@]4(C)C=C(C#N)C(=O)C(C)(C)[C@@H]4CC[C@@]3(C)[C@]1(C)CC2 [CDDO-Me, bardoxolone methyl]
IC50 [2]: 11 nM
inhibition at 100 µM [4]: < 10%
IC50 [5]: 24 nM
Kd [5]: 13 nM
IC50 [3]: 103000 nM

CC(C)(C)OC(=O)NC1CCN(C(=O)Nc2nccnc2C(=O)NC2Cc3ccccc3C2)CC1 [Compound 7, tert-butyl (1-((3-((2,3-dihydro-1H-inden-2-yl)carbamoyl)pyrazin-2-yl)carbamoyl)piperidin-4-yl)carbamate]
Kd [1, 12]: 13.2 nM
Kd [1, 13]: 13.1 nM
EC50 [6, 14]: 90.6 nM
EC50 [7]: 2170 nM

CC(C)(C)OC(=O)N1CCC[C@H]1C(=O)NC1CCN(C(=O)Nc2nccnc2C(=O)NC2Cc3ccccc3C2)CC1 [Compound 31, tert-butyl (S)-2-((1-((3-((2,3-dihydro-1H-inden-2-yl)carbamoyl)pyrazin-2-yl)carbamoyl)piperidin-4-yl)carbamoyl)pyrrolidine-1-carboxylate]
Kd [1, 12]: 1990 nM
Kd [1, 13]: 2300 nM
Kd [8]: > 5000 nM
percent growth at 10 μM [6]: 102%†
percent growth at 10 μM [7]: 98%†

CC(C)(C)OC(=O)N1CCC[C@H]1C(=O)NCC1CCN(C(=O)Nc2nccnc2C(=O)NC2Cc3ccccc3C2)CC1 [Compound 32, tert-butyl (S)-2-(((1-((3-((2,3-dihydro-1H-inden-2-yl)Carbamoyl)pyrazin-2-yl)carbamoyl)piperidin-4-yl)methyl)carbamoyl)pyrrolidine-1-carboxylate]
Kd [1, 12]: 5.35 nM
Kd [1, 13]: 6.67 nM
Kd [8, 15]: 72.1 nM
Kd [8, 16]: 270 nM
EC50 [6, 14]: 63.2 nM
EC50 [7]: 1530 nM

COC(=O)/C=C/C(=O)OC [DMF, dimethyl fumarate]
IC50 [2]: 64800 nM
inhibition at 100 µM [4]: < 5%
IC50 [5]: 129000 nM
Kd [5]: 67400 nM
IC50 [3]: 266000 nM

CC[C@H](C)[C@H](N)C(=O)NS(=O)(=O)NC[C@H]1O[C@@H](n2cnc3c(N)ncnc32)[C@H](O)[C@@H]1O [IleSNA]
IC50 ([6]; Plasmodium falciparum, DD2, read-out: ABS IC50): 1.19 nM

O=C(NC1Cc2ccccc2C1)c1nccnc1NC(=O)N1CCC(NC(=O)[C@@H]2CCCN2)CC1 [MAT334, (S)-N-(2,3-dihydro-1H-inden-2-yl)-3-(4-(pyrrolidine-2-carboxamido)piperidine-1-carboxamido)pyrazine-2-carboxamide]
Kd [1, 12]: 660 nM
Kd [1, 13]: 1380 nM
Kd [8, 16]: 2130 nM
percent growth at 10 μM [6]: 76%†
percent growth at 10 μM [7]: 59%†

O=C(NC1Cc2ccccc2C1)c1nccnc1NC(=O)N1CCC(CNC(=O)[C@@H]2CCCN2)CC1 [MAT345, (S)-N-(2,3-dihydro-1H-inden-2-y)-3-(4-((pyrrolidine-2-carboxamido)methyl)piperidine-1-carboxamido)pyrazine-2-carboxamide]
Kd [1, 12]: 35.9 nM
Kd [1, 13]: 39.8 nM
Kd [8, 15]: 140 nM
Kd [8, 16]: 282 nM
EC50 [6, 14]: 249 nM
EC50 [7]: 7210 nM

O=C(CCCCCNC(=S)Nc1ccc(-c2c3ccc(=O)cc-3oc3cc(O)ccc23)c(C(=O)O)c1)NC1CCN(C(=O)Nc2nccnc2C(=O)NC2Cc3ccccc3C2)CC1 [MAT379]
koff ([1]; 10-fold dilution of 100 nM HT-PfcProRS and 560 nM MAT379, read-out: first-order dissociation rate constant (koff)): < 0.00267 s⁻¹
Kd ([1]; absence of substrates, read-out: PfcProRS (KD [nM]) −): 100 nM
Kd [8, 17]: 1700 nM
fold less tightly bound to HT-HsProRS relative to HT-PfcProRS [8]: 17 fold and > 15 fold

O=C(CCCCCNC(=S)Nc1ccc(-c2c3ccc(=O)cc-3oc3cc(O)ccc23)c(C(=O)O)c1)NCCCCCC(=O)NC1CCN(C(=O)Nc2nccnc2C(=O)NC2Cc3ccccc3C2)CC1 [MAT422]
Kd ([1]; KD, PfcProRS of alternative tracer, tracer binding, conditions not stated): 1280 nM
Kd [8, 17]: > 4000 nM

O=C(CCCCCNC(=S)Nc1ccc(C(=O)O)c(-c2c3ccc(=O)cc-3oc3cc(O)ccc23)c1)NCC1CCN(C(=O)Nc2nccnc2C(=O)NC2Cc3ccccc3C2)CC1 [MAT425, 4-(3-(6-(((1-((3-((2,3-dihydro-1H-inden-2-yl)carbamoyl)pyrazin-2-yl)carbamoyl)piperidin-4-yl)methyl)amino)-6-oxohexyl)thioureido)-2-(6-hydroxy-3-oxo-3H-xanthen-9-yl)benzoic acid]
Kd [1, 13]: 199 nM
Kd [8, 17]: > 10000 nM
fold less tightly bound to HT-HsProRS relative to HT-PfcProRS [8]: > 50 fold

NCCOCCOCCCCCCN(C[C@H]1O[C@@H](n2cnc3c(N)ncnc32)[C@H](O)[C@@H]1O)S(=O)(=O)NC(=O)[C@@H]1CCCN1 [MAT556, (S)-N-(N-(((2R,3S,4R,5R)-5-(6-amino-9H-purin-9-yl)-3,4-dihydroxytetrahydrofuran-2-yl)methyl)-N-(6-(2-(2-aminoethoxy)ethoxy)hexyl)sulfamoyl)pyrrolidine-2-carboxamide]
Kd [1, 18]: 195 nM
Kd [8, 19]: 33.7 nM

NS(=O)(=O)OC[C@@H]1C[C@@H](n2ccc3c(N[C@H]4CCc5ccccc54)ncnc32)C[C@@H]1O [MLN4924]
rescue of CS-JQ1-mediated BRD4 degradation [9]: substantially rescued
rescue of dBET6-induced BRD4 degradation [9]: attenuated
rescue of CS-JQ1-mediated BRD4 degradation [10]: substantially rescued
rescue of dBET6-induced BRD4 degradation [10]: attenuated

NS(=O)(=O)OC[C@H]1C[C@@H](Nc2ccnc3cc(-c4cccc(SC(F)(F)F)c4)nn23)[C@H](O)[C@@H]1O [MLN7243]
rescue of CS-JQ1-mediated BRD4 degradation [9]: substantially rescued
rescue of dBET6-induced BRD4 degradation [9]: attenuated
rescue of CS-JQ1-mediated BRD4 degradation [10]: substantially rescued
rescue of dBET6-induced BRD4 degradation [10]: attenuated

COC1=CC(=O)C(O)=C/C1=C\C=C\c1ccccc1 [OBT, obtusaquinone]
IC50 [2]: 3390 nM
IC50 [3]: 24600 nM

Nc1ncnc2c1ncn2[C@@H]1O[C@H](COS(=O)(=O)NC(=O)[C@@H]2CCCN2)[C@@H](O)[C@H]1O [ProSA, prolyl-sulfamoyl adenosine, reference compound]
EC50 ([6]; wild-type Dd2-2D4, 72 h growth): 151 nM

Nc1ncnc2c1ncn2[C@@H]1O[C@H](CNS(=O)(=O)NC(=O)[C@@H]2CCCN2)[C@@H](O)[C@H]1O [ProSNA, (S)-N-(N-(((2R,3S,4R,5R)-5-(6-amino-9H-purin-9-yl)-3,4-dihydroxytetrahydrofuran-2-yl)methyl)sulfamoyl)pyrrolidine-2-carboxamide]
Kd [1, 18]: < 1 nM
Kd [8, 19]: < 1 nM
EC50 [6, 14]: 172 nM

CC(C)C[C@H](NC(=O)[C@H](Cc1ccccc1)NC(=O)c1cnccn1)B(O)O [bortezomib]
rescue of CS-JQ1-mediated BRD4 degradation [9]: substantially rescued
rescue of dBET6-induced BRD4 degradation [9]: attenuated
rescue of CS-JQ1-mediated BRD4 degradation [10]: substantially rescued
rescue of dBET6-induced BRD4 degradation [10]: attenuated

O=C(CC1NCCCC1O)Cn1cnc2cc(Br)c(Cl)cc2c1=O (stereo not drawn) [halofuginone, reference compound]
fold increased affinity in the presence of ATP ([1]; 500 μM ATP vs 0 μM ATP): > 6,000 fold

O=C(O)[C@@H]1CCCN1 [proline]
Kd [1, 11]: 457000 nM
Kd ([8]; read-out: HsProRS KD of proline, competition with MAT379): 67100 nM
